Where a name gives a salt, the structure may show the parent alone. Calls of active or inactive are those of the source.
Tests used:
[1] = target: T1, Microphthalmia-associated transcription factor (Homo sapiens, UniProt O75030); test: reducers of TRPM1 reporter luminescence, concentration series – cell-based, SK-MEL-5, cherry-picked, set 3, MITF inhibitor project, dose response (AID 493073); type: functional;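 note: SK-MEL-5 melanoma cells with luciferase driven by the MITF target TRPM1 promoter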
T1 sequence (O75030 whole entry): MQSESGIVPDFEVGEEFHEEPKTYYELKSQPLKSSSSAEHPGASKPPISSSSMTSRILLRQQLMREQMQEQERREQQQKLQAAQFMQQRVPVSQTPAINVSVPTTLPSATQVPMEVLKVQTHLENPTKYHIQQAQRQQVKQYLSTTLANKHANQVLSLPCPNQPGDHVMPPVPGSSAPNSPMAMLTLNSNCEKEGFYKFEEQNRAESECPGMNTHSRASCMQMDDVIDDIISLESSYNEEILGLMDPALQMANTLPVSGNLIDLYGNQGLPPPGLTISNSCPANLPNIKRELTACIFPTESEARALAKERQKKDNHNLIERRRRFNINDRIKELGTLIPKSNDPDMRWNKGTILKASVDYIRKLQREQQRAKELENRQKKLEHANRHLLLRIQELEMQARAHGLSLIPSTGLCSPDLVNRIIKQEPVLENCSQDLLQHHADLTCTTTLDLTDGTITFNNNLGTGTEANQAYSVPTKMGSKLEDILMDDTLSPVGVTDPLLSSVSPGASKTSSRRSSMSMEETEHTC

[2] = system: A-375; test: proliferation inhibition in MITF-low A375 cells – cell-based, cherry-pick samples, set 2, counter-screen for MITF modulator project, dose response (AID 540335); type: functional; conditions: Homo sapiens
[3] = system: A-375; test: MITF: Counter assay: A375 proliferation Measured in Cell-Based System Using Plate Reader - 2084-03_Inhibitor_Dose_DryPowder_Activity. [Related pubchem assays (depositor defined):AID488944]; type: functional; conditions: Homo sapiens
[4] = target: T2, Ubiquitin-conjugating enzyme E2 N (Homo sapiens, UniProt P61088); type: functional;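 note: Dose-response confirmation in a TR-FRET assay detecting UBC13-driven polyubiquitin chain formation, inhibition measured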
T2 sequence (P61088 whole entry): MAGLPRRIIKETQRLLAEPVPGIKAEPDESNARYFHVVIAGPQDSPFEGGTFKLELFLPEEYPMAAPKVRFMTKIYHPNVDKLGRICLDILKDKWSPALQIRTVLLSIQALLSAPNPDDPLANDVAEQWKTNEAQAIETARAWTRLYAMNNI

[5] = target: DNA dC->dU-editing enzyme APOBEC-3A (Homo sapiens, UniProt P31941); test: Dose Response confirmation of small molecule APOBEC3A DNA Deaminase Inhibitors via a fluorescence-based single-stranded DNA deaminase assay. [Related pubchem assays (depositor defined):AID493011, AID493024]; type: functional
[6] = target: DNA dC->dU-editing enzyme APOBEC-3G (Homo sapiens, UniProt Q9HC16); type: functional;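 note: Dose-response counterscreen measuring inhibition of APOBEC3G DNA deaminase activity, run while confirming APOBEC3A inhibitors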
[7] = system: INS1; test: INS-1E survival protection against cytokine death – cell-based, luminescence, retest, dose response (AID 449756); type: functional; conditions: Rattus norvegicus;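 note: cell death triggered by IL-1 beta plus TNF-alpha plus IFN-gamma mixture; protective hits raise ATP signal compared with cytokine alone wells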
[8] = target: T3, Polyadenylate-binding protein 1 (Homo sapiens, UniProt P11940); test: MLLE binding blockers, Cy5 peptide tracer – biochemical, fluorescence polarization, Cy5-PAM2 peptide, secondary, miRNA deadenylation inhibitor project, dose response (AID 602260); type: functional; conditions: read-out: IC50_Mean
[9] = target: T3, Polyadenylate-binding protein 1; test: MLLE domain peptide-binding blockers, IC50 – biochemical, fluorescence polarization, FITC-PAM2 peptide, dose response (AID 602259); type: functional; conditions: read-out: IC50_Mean
[10] = target: Beta-galactosidase (Escherichia coli, UniProt Q8VNN2); test: detection-enzyme interference by beta-gal modulators – biochemical, E. coli enzyme, set 3, artefact control for CCR6 antagonist project, dose response (AID 504712); type: functional
[11] = target: Cytochrome P450 2C9 (Homo sapiens, UniProt P11712)
[12] = Luminescence Cell-Based Dose Response HTS to Identify Activators of Luciferase Translation or Activity in H4 […] Cells. [Related pubchem assays: 1829 (Project Summary), 1814 (Primary HTS)]; type: functional
[13] = target: T4, Oxysterols receptor LXR-beta (Homo sapiens, UniProt P55055); type: functional, cell-based;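 note: agonist activity at LXR measured by a cell-based luminescence readout across a dose range, run as a counterscreen for daf-12 agonists; HEK293 cells with Gal4-LXR fusion and GAL4-driven luciferase reporter; potency for activation of Gal4-LXR reporter so compounds are agonists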
T4 sequence (P55055 whole entry): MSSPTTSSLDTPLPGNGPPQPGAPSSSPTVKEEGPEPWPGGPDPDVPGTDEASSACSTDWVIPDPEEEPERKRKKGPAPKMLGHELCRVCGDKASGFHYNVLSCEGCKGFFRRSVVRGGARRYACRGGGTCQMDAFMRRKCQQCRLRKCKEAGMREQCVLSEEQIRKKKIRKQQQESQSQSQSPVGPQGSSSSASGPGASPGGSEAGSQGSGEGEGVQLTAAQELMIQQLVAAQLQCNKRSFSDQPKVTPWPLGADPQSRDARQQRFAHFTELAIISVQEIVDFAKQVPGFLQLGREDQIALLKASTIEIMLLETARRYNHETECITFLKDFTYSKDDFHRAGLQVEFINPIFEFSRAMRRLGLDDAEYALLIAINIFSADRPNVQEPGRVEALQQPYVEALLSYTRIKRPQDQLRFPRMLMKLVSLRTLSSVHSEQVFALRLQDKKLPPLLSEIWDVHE

[14] = target: T5, Nuclear receptor subfamily 0 group B member 1 (Homo sapiens, UniProt P51843); test: Luminescence-based cell-based high throughput dose response assay for inhibitors of the orphan nuclear receptor subfamily 0, group B, member 1 (DAX1; NR0B1). [Related pubchem assays (depositor defined):AID504766, AID504790]; type: functional
T5 sequence (P51843 whole entry): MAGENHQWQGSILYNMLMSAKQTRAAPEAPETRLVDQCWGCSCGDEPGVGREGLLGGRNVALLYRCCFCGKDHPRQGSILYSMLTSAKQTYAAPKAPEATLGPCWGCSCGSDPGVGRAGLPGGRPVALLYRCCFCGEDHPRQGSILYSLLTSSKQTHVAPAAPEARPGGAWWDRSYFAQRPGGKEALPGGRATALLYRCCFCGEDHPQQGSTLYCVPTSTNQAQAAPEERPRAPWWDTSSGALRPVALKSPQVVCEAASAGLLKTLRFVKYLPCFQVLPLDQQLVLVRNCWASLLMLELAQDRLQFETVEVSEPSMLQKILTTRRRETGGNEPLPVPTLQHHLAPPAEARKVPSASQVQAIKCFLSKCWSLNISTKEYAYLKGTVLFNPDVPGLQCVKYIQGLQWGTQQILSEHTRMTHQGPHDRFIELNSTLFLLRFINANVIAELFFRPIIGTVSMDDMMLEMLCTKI

[15] = viability loss in HepG2 hepatoma cells – cell-based, ATP luminescence, cherry-pick, activator set 2, cytotoxicity control, dose response (AID 1053143); type: functional
[16] = cells; type: functional, cell-based
[17] = system: H4; test: Luminescence Cell-Based Dose Response HTS to Identify Activators of 5'UTR Stem-Loop Driven Prion Protein mRNA Translation in H4 Neuroglioblastoma Cells. [Related pubchem assays: 1829 (Project Summary), 1814 (Primary HTS)]; type: functional; conditions: Homo sapiens
[18] = Luminescence Cell-Based Dose Confirmation HTS to Identify Activators of 5'UTR Stem-Loop Driven Alpha-Synuclein mRNA Translation in H4 Neuroglioblastoma Cells. [Related pubchem assays: 1829 (Project Summary), 1814 (Primary HTS)]; type: functional
[19] = cells; type: functional, cell-based; remark: listed apart in the source
[20] = system: HEK293; test: cells; type: functional, cell-based; conditions: Homo sapiens
[21] = target: Voltage-gated inwardly rectifying potassium channel KCNH2 (Homo sapiens, UniProt Q12809); conditions: Potency;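 note: confirmatory quantitative high-throughput screen measuring inhibition of hERG channel activity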
Chain of Voltage-gated inwardly rectifying potassium channel KCNH2 (Q12809 whole entry): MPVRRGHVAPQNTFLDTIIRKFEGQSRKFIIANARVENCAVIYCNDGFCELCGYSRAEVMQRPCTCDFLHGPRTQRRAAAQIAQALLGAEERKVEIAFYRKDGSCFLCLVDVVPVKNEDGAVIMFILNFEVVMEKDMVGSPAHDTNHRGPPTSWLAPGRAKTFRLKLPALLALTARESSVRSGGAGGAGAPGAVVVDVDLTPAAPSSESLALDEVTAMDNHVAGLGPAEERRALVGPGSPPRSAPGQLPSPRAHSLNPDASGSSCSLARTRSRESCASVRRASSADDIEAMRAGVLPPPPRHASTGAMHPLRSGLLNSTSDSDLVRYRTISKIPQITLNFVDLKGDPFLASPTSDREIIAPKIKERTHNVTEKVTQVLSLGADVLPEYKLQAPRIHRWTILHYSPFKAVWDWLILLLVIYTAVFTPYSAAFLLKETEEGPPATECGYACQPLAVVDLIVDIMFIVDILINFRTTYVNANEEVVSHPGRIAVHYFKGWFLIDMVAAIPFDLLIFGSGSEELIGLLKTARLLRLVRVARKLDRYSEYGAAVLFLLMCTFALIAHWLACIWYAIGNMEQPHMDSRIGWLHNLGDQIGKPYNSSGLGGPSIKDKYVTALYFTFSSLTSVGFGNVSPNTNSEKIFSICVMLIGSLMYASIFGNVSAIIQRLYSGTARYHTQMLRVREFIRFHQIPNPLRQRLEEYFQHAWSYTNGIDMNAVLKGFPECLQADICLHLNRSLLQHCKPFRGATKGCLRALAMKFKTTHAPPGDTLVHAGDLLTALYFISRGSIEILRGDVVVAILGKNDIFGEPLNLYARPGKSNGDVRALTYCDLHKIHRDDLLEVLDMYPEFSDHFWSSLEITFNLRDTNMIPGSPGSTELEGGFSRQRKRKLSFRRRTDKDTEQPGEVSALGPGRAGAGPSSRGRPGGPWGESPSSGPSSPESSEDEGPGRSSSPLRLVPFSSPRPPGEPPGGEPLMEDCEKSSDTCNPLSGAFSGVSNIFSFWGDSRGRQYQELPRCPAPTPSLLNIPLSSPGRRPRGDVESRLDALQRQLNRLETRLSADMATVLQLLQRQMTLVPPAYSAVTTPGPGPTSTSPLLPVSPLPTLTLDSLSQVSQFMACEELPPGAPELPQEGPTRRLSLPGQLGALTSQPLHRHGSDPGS

T3 sequence (P11940 whole entry, the tested form may be a part): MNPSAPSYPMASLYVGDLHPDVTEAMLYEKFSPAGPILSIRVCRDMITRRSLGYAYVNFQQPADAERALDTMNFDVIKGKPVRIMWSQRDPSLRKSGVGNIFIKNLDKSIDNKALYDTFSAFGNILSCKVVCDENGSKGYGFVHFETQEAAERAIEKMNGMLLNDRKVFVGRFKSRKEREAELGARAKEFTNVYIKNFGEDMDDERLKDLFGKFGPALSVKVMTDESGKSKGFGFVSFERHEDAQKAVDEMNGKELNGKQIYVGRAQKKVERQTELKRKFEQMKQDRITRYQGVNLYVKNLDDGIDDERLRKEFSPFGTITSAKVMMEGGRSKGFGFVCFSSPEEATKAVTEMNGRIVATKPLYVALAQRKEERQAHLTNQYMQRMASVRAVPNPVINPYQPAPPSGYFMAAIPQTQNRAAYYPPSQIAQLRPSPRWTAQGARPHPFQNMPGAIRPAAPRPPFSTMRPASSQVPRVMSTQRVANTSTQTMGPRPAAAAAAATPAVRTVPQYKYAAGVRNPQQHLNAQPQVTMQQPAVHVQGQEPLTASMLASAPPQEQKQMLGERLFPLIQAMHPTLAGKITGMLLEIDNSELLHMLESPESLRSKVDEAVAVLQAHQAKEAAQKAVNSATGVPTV
Chain of Cytochrome P450 2C9 (P11712 whole entry): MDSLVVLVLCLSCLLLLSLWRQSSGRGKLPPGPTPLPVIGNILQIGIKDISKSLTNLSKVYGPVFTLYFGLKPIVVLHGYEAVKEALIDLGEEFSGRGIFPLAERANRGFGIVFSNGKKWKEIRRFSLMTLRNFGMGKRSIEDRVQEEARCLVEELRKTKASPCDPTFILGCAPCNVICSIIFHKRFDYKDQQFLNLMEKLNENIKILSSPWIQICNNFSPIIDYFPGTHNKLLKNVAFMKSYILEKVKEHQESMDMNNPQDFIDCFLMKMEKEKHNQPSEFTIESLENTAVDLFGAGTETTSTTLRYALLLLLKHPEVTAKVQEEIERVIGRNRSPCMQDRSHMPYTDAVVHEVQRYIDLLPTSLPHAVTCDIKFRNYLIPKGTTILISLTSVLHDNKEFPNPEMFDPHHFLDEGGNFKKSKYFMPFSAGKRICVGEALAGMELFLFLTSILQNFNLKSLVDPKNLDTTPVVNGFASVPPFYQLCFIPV
Chain of Beta-galactosidase (Q8VNN2 whole entry): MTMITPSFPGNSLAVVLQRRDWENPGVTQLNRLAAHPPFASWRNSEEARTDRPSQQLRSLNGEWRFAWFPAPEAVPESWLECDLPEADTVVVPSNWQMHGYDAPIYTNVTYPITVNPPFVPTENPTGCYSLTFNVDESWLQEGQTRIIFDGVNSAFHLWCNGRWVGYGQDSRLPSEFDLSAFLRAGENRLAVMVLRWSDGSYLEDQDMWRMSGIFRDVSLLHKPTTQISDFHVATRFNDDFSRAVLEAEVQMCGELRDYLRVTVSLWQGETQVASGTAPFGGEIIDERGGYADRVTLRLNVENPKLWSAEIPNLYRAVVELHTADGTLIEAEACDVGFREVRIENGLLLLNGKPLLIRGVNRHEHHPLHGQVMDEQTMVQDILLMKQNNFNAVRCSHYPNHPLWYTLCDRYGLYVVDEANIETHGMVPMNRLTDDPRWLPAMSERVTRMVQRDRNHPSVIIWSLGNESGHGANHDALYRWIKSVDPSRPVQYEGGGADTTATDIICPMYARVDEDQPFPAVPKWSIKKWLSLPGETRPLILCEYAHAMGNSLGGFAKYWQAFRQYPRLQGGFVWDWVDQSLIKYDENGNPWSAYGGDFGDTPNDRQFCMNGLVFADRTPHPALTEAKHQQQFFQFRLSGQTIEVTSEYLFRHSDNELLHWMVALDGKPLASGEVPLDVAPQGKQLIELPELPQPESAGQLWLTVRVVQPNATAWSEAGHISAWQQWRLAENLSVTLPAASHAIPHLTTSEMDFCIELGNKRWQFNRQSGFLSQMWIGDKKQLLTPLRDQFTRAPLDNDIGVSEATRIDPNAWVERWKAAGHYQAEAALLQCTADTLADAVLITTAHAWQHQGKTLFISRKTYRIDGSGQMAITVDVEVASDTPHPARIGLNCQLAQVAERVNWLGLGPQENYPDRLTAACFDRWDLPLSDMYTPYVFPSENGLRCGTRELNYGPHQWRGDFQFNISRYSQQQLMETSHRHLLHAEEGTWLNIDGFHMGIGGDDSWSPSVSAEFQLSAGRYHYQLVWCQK
Chain of DNA dC->dU-editing enzyme APOBEC-3G (Q9HC16 whole entry): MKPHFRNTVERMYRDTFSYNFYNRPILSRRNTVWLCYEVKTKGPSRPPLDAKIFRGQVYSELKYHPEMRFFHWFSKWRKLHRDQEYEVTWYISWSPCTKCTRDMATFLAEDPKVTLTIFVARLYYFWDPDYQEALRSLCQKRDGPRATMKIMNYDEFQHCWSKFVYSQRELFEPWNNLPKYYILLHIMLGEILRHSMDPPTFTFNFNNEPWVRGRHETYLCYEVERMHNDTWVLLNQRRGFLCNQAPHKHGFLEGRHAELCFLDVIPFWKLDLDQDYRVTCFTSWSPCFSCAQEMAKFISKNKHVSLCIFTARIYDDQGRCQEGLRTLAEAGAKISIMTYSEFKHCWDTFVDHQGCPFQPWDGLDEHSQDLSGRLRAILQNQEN
Chain of DNA dC->dU-editing enzyme APOBEC-3A (P31941 whole entry): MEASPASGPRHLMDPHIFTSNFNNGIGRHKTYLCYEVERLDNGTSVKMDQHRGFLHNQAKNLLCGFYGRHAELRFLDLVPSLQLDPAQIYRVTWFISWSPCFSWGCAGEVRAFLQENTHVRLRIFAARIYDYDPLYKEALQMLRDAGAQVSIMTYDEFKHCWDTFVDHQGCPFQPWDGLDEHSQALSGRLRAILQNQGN

Question: With `COC(=O)C1=C(C)N(Cc2ccccc2)C(NCCc2cccnc2)=N[C@H]1c1ccc(Br)cc1` as the molecule, how does the AC50 [1] read?
Answer: 17.8 µM (active)

Question: What about the AC50 [2] of the same molecule?
Answer: > 11 µM (active)

Question: What about the AC50 [3] of the same molecule?
Answer: > 11 µM (active)

Question: And the IC50 [4]?
Answer: > 20 µM (inactive)

Question: And the IC50 [5]?
Answer: 3.04 µM (active)

Question: What about the IC50 [6] of the same molecule?
Answer: 4.68 µM (active)

Question: For `CC(C)Oc1ccc(C(CCN)C2CCCCC2)cc1` (stereo unspecified), which AC50 [1] is on record?
Answer: 9.99 µM (active)

Question: And the AC50 [3]?
Answer: 17.7 µM (active)

Question: What about the AC50 [7] of the same molecule?
Answer: 7.47 µM (active)

Question: What does the source list for `O=C1NC(=S)NC(=O)C1=Cc1cccc2cc3ccccc3cc12`?
Answer: IC50 [8]: > 66 µM (inactive); AC50 [1]: 4.81 µM (active); AC50 [2]: > 35 µM (active); AC50 [3]: > 35 µM (active); IC50 [9]: > 66 µM (inactive); IC50 [10]: > 66.6 µM (inactive); AC50 [11]: 3.16 µM (inconclusive)

Question: Which EC50 [12] does the source give for `O=C(Nc1ccccc1O)c1ccc(NS(=O)(=O)c2cccc3cccnc23)cc1` here?
Answer: 10.7 µM (active)

Question: What about the EC50 [13] of the same molecule?
Answer: > 67.5 µM (inactive)

Question: And the IC50 [14]?
Answer: > 67.5 µM (inactive)

Question: What about the AC50 [15] of the same molecule?
Answer: 9.01 µM (active)

Question: And the EC50 [16]?
Answer: 8.05 µM (active)

Question: And the EC50 [17]?
Answer: 34 µM (active)

Question: What about the EC50 [18] of the same molecule?
Answer: 11.2 µM (active)

Question: What about the EC50 [19] of the same molecule?
Answer: > 350 µM (not active)

Question: What about the IC50 [20] of the same molecule?
Answer: 0.695 µM (active)

Question: Which IC50 [14] does the source give for `CCOC(=O)N1CCN(C(=O)COc2cc(=O)n(CC)c3ccccc23)CC1` here?
Answer: > 67.5 µM (inactive)

Question: And the IC50 [20]?
Answer: > 67.5 µM (inactive)

Question: With `COc1ccc(CC(=O)NC2CCSc3ccccc32)c(OC)c1` (stereo unspecified) as the molecule, how does the IC50 [14] read?
Answer: > 67.6 µM (inactive)

Question: What about the IC50 [20] of the same molecule?
Answer: > 67.6 µM (inactive)

Question: For `COC[C@H]1OC(=O)c2coc3c2[C@@]1(C)C1=C(C3=O)C2CCC(=O)[C@@]2(C)C[C@H]1OC(C)=O` (stereo partly specified), which AC50 [21] is on record?
Answer: 17.8 µM (inconclusive)

Question: With `C#CCOC(=O)C1=CCCN(C)C1` [ARECAIDINE PROPARGYL ESTER HYDROBROMIDE] as the molecule, how does the AC50 [21] read?
Answer: 35.5 µM (inconclusive)
